Legend:
NTM-5 cells [1] = assay: In vitro peroxynitrite measurement assay; type: cell-based, human; conditions: 0.1 µM and 1 mM, with or without TBHP 350 µM
Experimental: Human transformed trabecular meshwork (NTM-5) cells (20,000 cells/well/90 µL) were seeded in 96-well plates (Griener bio-one black plate) and stained with 10 µL of 10X Peroxynitrite Sensor Green solution for 1 h. […] SIN-1 was used as a positive control. Detection of peroxynitrite was done using Peroxynitrite Assay Kit (abcam-ab233468-cell based). Fluorescence signals were measured using a microplate reader (Cytation5) at Ex/Em = 485/530 nm at time intervals (15 min, 30 min, 1 h, 2 h, and 3 h). The experiments were done in duplicates.

[2] = Superoxide anion radical scavenging assay (pyrogallol/WST-1) in buffer; type: biochemical
Experimental: The ROS scavenging ratio was determined using a chemical assay where WST-1 was used as superoxide scavenger produced by pyrogallol following a reported protocol. Briefly, the superoxide anion radical scavenging activity was determined spectrophotometrically by measuring the formation of WST-1 formazan at 450 nm. WST-1 (40 µL, 50 µM) was added to the compounds (or corresponding solution) in a final volume of 160 µL in 50 mM ammonium hydrogen carbonate buffer, 0.5 mM EDTA, pH 9.3. Reaction was launched by adding 40 µL 1 mM pyrogallol. The operation was based on the 96-well microplate, and measurement was performed at different time points under 37 °C by Cytation5 Microplate Reader. Baicalein (1 mM) was used as positive control. Compounds SA-2, SA-9, and SA-10 were used in concentrations ranging from 1 µM, 10 µM, 100 µM, and 1000 µM. The superoxide anion radical scavenging ratio % was calculated according to the following formula:Scavenging ratio (%) = A0 − (A1 − A2)/A0 × 100%

NTM-5 cells [3] = assay: Total nitrite release by Griess assay in NTM-5 cell supernatant; type: cell-based, human
Experimental: (§1) The total nitrite released from the compounds in buffer and in cell supernatant were measured by Griess assay as reported by us previously. In brief, compounds (SA-2, SA-9, and SA-10) in buffer at different concentrations (1 mM, 500 µM, 250 µM 125 µM, 62.5 µM, 31.25 µM, and 15.625 µM) or supernatant collected from Human transformed trabecular meshwork (NTM-5) cells were added to a 96-well plate. 1% Sulphanilamide in 5% phosphoric acid and 0.1% N-1-napthylethylenediamine dihydrochloride (NED) were added to experimental samples sequentially at room temperature and away from light. SIN-1 was used as reference standard. UV Absorbances (Cytation 5) were measured at specific timepoints (0, 5 min, 10 min, 15 min, 30 min, 24 h, and 28 h) at 520 nm.
The experiments were repeated twice with four technical replicates.

[4] = Hypochlorous acid (HOCl) radical scavenging assay (TNB) in buffer; type: biochemical
Experimental: This assay used the redox reaction between 5-thio-2-nitrobenzoic acid (TNB) and HOCl to form dithio-TNB. Using the method described previously, we assessed the % TNB remaining with or without treatment with SA compounds. Compounds SA-2, SA-9, and SA-10 were used in concentrations ranging from 0.1 µM, 1 µM, 10 µM, 100 µM, and 1000 µM. Lipoic acid (1 mM) was used as positive control.

[5] = Total nitrite/NO release by Griess assay in buffer (aqueous stability); type: physicochemical; conditions: even after 3 days
Experimental: as §1, with “UV Absorbances (Cytation 5) were measured at specific timepoints (0, 5 min, 10 min, 15 min, 30 min, 24 h, and 28 h) at 520 nm.” left out

Structure (SMILES): Cl.[NH-]c1c[n+](C2CCSCC2)no1 [SA-9, (3-(tetrahydro-2H-thiopyran-4-yl)-1,2,3-oxadiazol-3-ium-5-yl)amide hydrochloride]
- ONOO− radical formation (NTM-5 cells [1]): significantly less amount of radicals
- AUC0–2.5 h of % superoxide scavenging response ([2]; 1 mM compound, pyrogallol 1 mM, buffer): 1355 ± 42.62
- earliest time of superoxide (O2−) radical scavenging ([2]; buffer solution and TM cells): 7 min
- superoxide radicals scavenged ([2]; buffer, dose response 1-1000 µM): 16–40%
- AUC0-15 of % superoxide scavenging response ([2]; different concentrations 1-1000 µM, 15 minutes time point, buffer): 5972± 834.9
- NO released in NTM-5 cell supernatants (NTM-5 cells [3]; 28 h at 37 °C): dose dependently
- start of NO release (NTM-5 cells [3]; buffer solution and TM cells): > 24 h
- fold more potent than lipoic acid in HOCl scavenging ([4]; 0.1 µM vs. 1 mM lipoic acid, 30 min): 10,000 fold
- duration of HOCl scavenging effect ([4]; 0.1 µM–1000 µM in buffer): > 1 h
- NO release in buffer [5]: did not observe any NO release
